Measurements from the supplement of paper PMC5908809.

How the values were obtained:
Assay in all cases: relative IC50 (inflection point of fitted viability curve, relative to fitted max inhibition); higher = less sensitive
Conditions in all cases: 72 h
[1] = test system: normal primary NK cells, pool 1 (3 donors), resting (IL-2 0 ng/mL)
Method: (§1)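 Drug sensitivity and resistance testing: 5 concentrations over a 10,000-fold range, 72 h at 37 °C, viability by CellTiter-Glo normalised to DMSO and benzethonium chloride controls. IC50 is the inflection point of a logistic fit (min fixed at 0, max fitted), so it is relative to the fitted maximal inhibition. Kept only where fitted max inhibition is at least 50%.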

KHYG-1 (IL-2 2.5 ng/mL) = test system: KHYG-1 (IL-2 2.5 ng/mL)
Method: as §1

NKL (IL-2 2.5 ng/mL) = test system: NKL (IL-2 2.5 ng/mL)
Method: as §1

IMC-1 (IL-2 20 ng/mL) = test system: IMC-1 (IL-2 20 ng/mL)
Method: as §1

DERL-7 (IL-2 2.5 ng/mL) = test system: DERL-7 (IL-2 2.5 ng/mL)
Method: as §1

KAI3 (IL-2 2.5 ng/mL) = test system: KAI3 (IL-2 2.5 ng/mL)
Method: as §1

YT (IL-2 2.5 ng/mL) = test system: YT (IL-2 2.5 ng/mL)
Method: as §1

NK-92 (IL-2 2.5 ng/mL) = test system: NK-92 (IL-2 2.5 ng/mL)
Method: as §1

NK-YS (IL-2 2.5 ng/mL) = test system: NK-YS (IL-2 2.5 ng/mL)
Method: as §1

SNK-6 (IL-2 2.5 ng/mL) = test system: SNK-6 (IL-2 2.5 ng/mL)
Method: as §1

Row | SMILES | relative IC50 [1] | relative IC50 (KHYG-1 (IL-2 2.5 ng/mL)) | relative IC50 (NKL (IL-2 2.5 ng/mL)) | relative IC50 (IMC-1 (IL-2 20 ng/mL)) | relative IC50 (DERL-7 (IL-2 2.5 ng/mL)) | relative IC50 (KAI3 (IL-2 2.5 ng/mL)) | relative IC50 (YT (IL-2 2.5 ng/mL)) | relative IC50 (NK-92 (IL-2 2.5 ng/mL)) | relative IC50 (NK-YS (IL-2 2.5 ng/mL)) | relative IC50 (SNK-6 (IL-2 2.5 ng/mL))
1 | O=C(Nc1ccc2[nH]nc(-c3ccncc3)c2c1)[C@@H]1CCN(CC(=O)N2CCN(c3ccc(-c4ncccn4)cc3)CC2)C1 | 1670 nM | 784 nM | 516 nM | > 10000 nM | 382 nM | – | – | – | – | –
2 | COc1cc2c(cc1O)CC[C@@H]1[C@@H]2CC[C@]2(C)[C@@H](O)CC[C@@H]12 [2-methoxyestradiol] | – | 319 nM | 243 nM | 791 nM | 589 nM | 442 nM | 373 nM | 153 nM | 260 nM | 263 nM
3 | Cc1cc(C(=O)NOCCO)c(Nc2ccc(I)cc2F)n(C)c1=O [AZD-8330] | – | 13 nM | 10.2 nM | – | – | – | – | > 10000 nM | – | > 10000 nM
4 | COc1cc(Nc2ncc3c(n2)-c2ccc(Cl)cc2C(c2c(F)cccc2OC)=NC3)ccc1C(=O)O [Alisertib] | – | 50.5 nM | 52.5 nM | 116 nM | 28.2 nM | 116 nM | 91.9 nM | 41.3 nM | 22 nM | 39.5 nM
5 | CN(C)c1nc(N(C)C)nc(N(C)C)n1 [Altretamine] | – | > 10000 nM | – | – | – | – | > 10000 nM | > 10000 nM | – | –
6 | N#CC(c1ccnc(OCc2ccc(CN3CCOCC3)cc2)n1)c1nc2ccccc2s1 (configuration not stated) [Bentamapimod] | – | 1690 nM | 1810 nM | 2230 nM | 1440 nM | – | 1590 nM | – | – | –
7 | O=C(c1ccc(F)c(F)c1Nc1ccc(I)cc1F)N1CC(O)([C@@H]2CCCCN2)C1 [Cobimetinib] | – | 123 nM | 51.6 nM | – | – | – | – | – | – | > 1000 nM
8 | CCCOc1ccn2c(C(C)=O)cc(-c3ccccc3S(C)(=O)=O)c2c1 [GSK2801] | – | – | – | > 10000 nM | – | – | – | – | – | –
9 | COc1cc2ncnc(Nc3ccc(F)c(Cl)c3)c2cc1OCCCN1CCOCC1 [Gefitinib] | 3700 nM | 2270 nM | 1770 nM | – | 3010 nM | 1710 nM | 2390 nM | 2660 nM | – | –
10 | O=S(=O)(c1cccc2c(O)nccc12)N1CCCNCC1 [Hydroxyfasudil] | – | – | – | – | – | – | – | – | – | 9460 nM
11 | O=C(O)c1ccc(O)c2ncccc12 [IOX-1] | – | 28400 nM | 29100 nM | 37400 nM | 21600 nM | 17000 nM | 32700 nM | 26400 nM | 32200 nM | 20200 nM
12 | C#Cc1cccc(Nc2ncnc3cc4c(cc23)OCCOCCOCCO4)c1 [Icotinib] | – | – | – | – | – | – | – | 1970 nM | – | –
13 | CCc1c2c(nc3ccc(OC(=O)N4CCC(N5CCCCC5)CC4)cc13)-c1cc3c(c(=O)n1C2)COC(=O)[C@]3(O)CC [Irinotecan] | – | 152 nM | 73 nM | 347 nM | 597 nM | 146 nM | 577 nM | 140 nM | 282 nM | 260 nM
14 | CS(=O)(=O)CCNCc1ccc(-c2ccc3ncnc(Nc4ccc(OCc5cccc(F)c5)c(Cl)c4)c3c2)o1 [Lapatinib] | – | – | – | – | – | – | – | – | – | > 1000 nM
15 | CNC(=O)c1cccc2cc(Oc3ccnc4cc(OCC5(N)CC5)c(OC)cc34)ccc12 [Lucitanib] | – | 2000 nM | – | – | – | – | 3440 nM | 1910 nM | 2000 nM | 3720 nM
16 | O=C(O)c1ccc(Nc2ncc3c(n2)-c2ccc(Cl)cc2C(c2c(F)cccc2F)=NC3)cc1 [MLN-8054] | – | 259 nM | 107 nM | 1540 nM | 763 nM | 291 nM | 190 nM | 563 nM | 125 nM | 73.6 nM
17 | S=c1[nH]cnc2nc[nH]c12 [Mercaptopurine] | > 10000 nM | 1420 nM | – | 1590 nM | – | 2160 nM | 1410 nM | 393 nM | 725 nM | 137 nM
18 | CCN1CCN(Cc2ccc(-c3cc4c(N[C@H](C)c5ccccc5)ncnc4[nH]3)cc2)CC1 [NVP-AEE788] | – | – | – | – | – | – | – | 374 nM | – | –
19 | CCN1CCN(c2ccc(Nc3cc(N(C)C(=O)Nc4c(Cl)c(OC)cc(OC)c4Cl)ncn3)cc2)CC1 [NVP-BGJ398] | – | – | – | – | – | – | – | – | – | > 1000 nM
20 | CCOc1cc2ncc(C#N)c(Nc3ccc(OCc4ccccn4)c(Cl)c3)c2cc1NC(=O)/C=C/CN(C)C [Neratinib] | 364 nM | – | – | – | 216 nM | – | – | 206 nM | – | –
21 | COc1ncc(-c2ccc3nccc(-c4ccnnc4)c3c2)cc1NS(=O)(=O)c1ccc(F)cc1F [Omipalisib] | – | 114 nM | 57.5 nM | – | 11.1 nM | 11.4 nM | 29 nM | 11.2 nM | 39.5 nM | 101 nM
22 | OC[C@H]1O[C@@H](n2cnc3c2N=CNC[C@H]3O)C[C@@H]1O [Pentostatin] | – | – | > 10000 nM | – | – | > 10000 nM | – | – | – | –
23 | COc1cc(F)c(F)c(Nc2ccc(I)cc2F)c1NS(=O)(=O)C1(C[C@H](O)CO)CC1 [Refametinib] | – | 147 nM | 91.9 nM | – | 194 nM | – | – | – | – | –
24 | O=C(Nc1cccc(Cl)c1)Nc1ncc(CCNc2ncnc3ccsc23)s1 [SNS-314] | – | 12.4 nM | – | 201 nM | 28.1 nM | – | – | 61.3 nM | 37.9 nM | 10.5 nM
25 | Cn1cnc2c(F)c(Nc3ccc(Br)cc3Cl)c(C(=O)NOCCO)cc21 [Selumetinib] | – | 606 nM | 436 nM | – | 136 nM | – | – | – | – | > 10000 nM
